Reference: patent US9271971B2, “Pyrido[3,4-B]indoles and methods of use” (Medivation Technologies, Inc., priority 2009, dated 2016)

How the values were obtained:
[1] = biological target: T1, human recombinant adrenergic α2C receptor (Homo sapiens, UniProt P18825); experiment: Adrenergic α2C radioligand binding assay; conditions: [3H]MK-912 specific binding, read-out: Percent Inhibition of ligand binding, Adrenergic (0.1 μM ligand conc.) α2C
T1 construct: expressed in transfected cells; host or cells: insect Sf9 cells
T1 sequence (P18825 1-462): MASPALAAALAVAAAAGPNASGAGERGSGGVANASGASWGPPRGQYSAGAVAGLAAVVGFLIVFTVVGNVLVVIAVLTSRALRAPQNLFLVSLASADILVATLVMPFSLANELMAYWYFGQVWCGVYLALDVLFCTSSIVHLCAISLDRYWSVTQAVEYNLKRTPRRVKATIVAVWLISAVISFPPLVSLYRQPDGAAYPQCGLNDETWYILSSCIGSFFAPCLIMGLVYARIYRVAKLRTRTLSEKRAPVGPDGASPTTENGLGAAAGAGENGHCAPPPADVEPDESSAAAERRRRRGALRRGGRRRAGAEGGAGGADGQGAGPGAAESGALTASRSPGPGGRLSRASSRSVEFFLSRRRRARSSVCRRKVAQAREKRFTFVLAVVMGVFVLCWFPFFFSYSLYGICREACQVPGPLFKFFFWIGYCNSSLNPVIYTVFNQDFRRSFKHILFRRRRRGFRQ
Method: To evaluate in radioligand binding assays the activity of compounds of the invention, human recombinant adrenergic α2C receptor expressed in insect Sf9 cells [Uhlen, S et al., J. Pharmacol. Exp. Ther. (1994), 271:1558] in a modified Tris-HCl buffer (50 mM Tris-HCl, pH 7.4, 12.5 mM MgCl2, 2 mM EDTA) was used. Compounds of the invention were incubated with 1 nM [^3H]MK-912 for 60 min. at 25° C. Non-specific binding was estimated in the presence of 10 μM WB-4101. Receptor proteins were filtered and washed, the filters were then counted to determine [^3H]MK-912 specifically bound. Compounds were screened at 1 μM or lower, using 1% DMSO as vehicle. Compounds of the invention were tested in this biochemical assay. Biochemical assay results for representative compounds were presented as the percent inhibition of specific binding in Table 3.

[2] = biological target: T2, rat adrenergic α1B receptor (Rattus norvegicus, UniProt P15823); experiment: Adrenergic α1B radioligand binding assay; conditions: [3H]Prozosin specific binding, read-out: Percent Inhibition of ligand binding, Adrenergic (0.1 μM ligand conc.) α1B
T2 construct: rat adrenergic α1B receptor obtained from Wistar Rat liver; from tissue; host or cells: Wistar Rat liver
T2 sequence (P15823 1-515): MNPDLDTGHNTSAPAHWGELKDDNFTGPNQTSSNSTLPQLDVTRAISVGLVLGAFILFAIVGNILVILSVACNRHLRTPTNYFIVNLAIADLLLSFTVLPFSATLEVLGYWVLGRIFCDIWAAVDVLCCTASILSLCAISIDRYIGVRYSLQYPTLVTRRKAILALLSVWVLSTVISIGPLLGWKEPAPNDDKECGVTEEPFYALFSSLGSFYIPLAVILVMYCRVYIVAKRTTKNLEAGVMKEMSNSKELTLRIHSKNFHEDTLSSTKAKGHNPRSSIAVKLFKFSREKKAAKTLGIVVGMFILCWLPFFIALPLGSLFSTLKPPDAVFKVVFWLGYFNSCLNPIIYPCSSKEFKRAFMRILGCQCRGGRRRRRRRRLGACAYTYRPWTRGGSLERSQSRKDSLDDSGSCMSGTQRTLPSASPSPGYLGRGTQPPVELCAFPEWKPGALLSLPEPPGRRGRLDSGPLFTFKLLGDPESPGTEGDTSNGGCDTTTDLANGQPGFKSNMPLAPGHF
Method: To evaluate in radioligand binding assays the activity of compounds of the invention, rat adrenergic α1B receptor obtained from Wistar Rat liver [Garcia-S′ainz, J. A. et al., Biochem. Biophys. Res. Commun. (1992), 186:760; Michel, A. D. et al., Br. J. Pharmacol. (1989), 98:883] in a modified Tris-HCl buffer (50 mM Tris-HCl buffer, pH 7.4, 0.5 mM EDTA) was used. Compounds of the invention were incubated with 0.25 nM [^3H]Prozosin for 60 min. at 25° C. Non-specific binding was estimated in the presence of 10 μM phentolamine. Receptor proteins were filtered and washed, the filters were then counted to determine [^3H]Prozosin specifically bound. Compounds were screened at 1 μM or lower, using 1% DMSO as vehicle. Compounds of the invention were tested in this biochemical assay. Biochemical assay results for representative compounds were presented as the percent inhibition of specific binding in Table 3.

| SMILES | inhibition at 0.1 µM [1] [%] | inhibition at 0.1 µM [2] [%] |
| --- | --- | --- |
| C/C(=C\n1c2c(c3cc(C)ccc31)C1CCN(C2)C1)c1ccc(Cl)cc1 (stereo not drawn) [Compound 32] | 39 | 67 |
| COc1ccc(/C(C)=C/n2c3c(c4cc(C)ccc42)C2CCN(C3)C2)cc1 (stereo not drawn) [Compound 45] | 3 | 20 |
| C/C(=C\n1c2c(c3cc(C)ccc31)C1CCN(C2)C1)c1ccc(Cl)cc1Cl (stereo not drawn) [Compound 33] | 16 | 28 |
| Cc1ccc2c(c1)c1c(n2C(=O)Cc2ccc(Cl)cc2)CN2CCC1C2 (stereo not drawn) [Compound 36] | 24 | 4 |
| C/C(=C\n1c2c(c3cc(C)ccc31)C1CCN(C2)C1)c1ccccc1F (stereo not drawn) [Compound 38] | 13 | 29 |
| C/C(=C\n1c2c(c3cc(C)ccc31)C1CCN(C2)C1)c1ccncc1 (stereo not drawn) [Compound 44] | 7 | 4 |
